Source: article PMC5551549 (Endocrinology, 2017)
“Also recorded” adds a separate entry of the source.

Columns and labels:
CHO-K1-GCGR cells [1] = assay: Ca^2+ response to ATP (control), CHO-K1-GCGR cells; type: cell-based, Chinese hamster; details: mean ± SEM; P = 0.77 vs RAMP2-expressing cells
Experimental: (§1) Cells, plated overnight onto 96-well plates at 50,000 cells/well, were incubated in 75 µL Ca NW^PLUS working reagent for 1 hour at 37°C. […] Fluorescence signal was measured from 5 seconds before to 30 seconds after injection of agonist. The Ca^2+ response was expressed as a percentage of the adenosine triphosphate response (1 µM).

[2] = tested on: CHO-K1-GCGR cells + RAMP2; assay: Ca^2+ response to ATP (control), RAMP2-expressing CHO-K1-GCGR cells; type: cell-based, Chinese hamster; details: mean ± SEM; P = 0.77 vs control cells
Experimental: as §1

[3] = tested on: human GCGR coexpressed with RAMP2; assay: PathHunter β-arrestin recruitment, CHO-K1-βArr-GCGR cells with RAMP2; type: cell-based; details: 90 min, 37°C; PathHunter β-galactosidase complementation; minimum of four separate experiments; Emax P < 0.0001 with vs without RAMP2
Excerpt: PathHunter CHO-K1 GCGR β-Arrestin GPCR assay (DiscoveRx Corporation Ltd.) was used to determine the effect of RAMP2 on the potency of GCGR ligands for recruitment of β-arrestin-1 to the GCGR. The CHO-K1-βArr-GCGR cells are engineered to detect the interaction of β-arrestin with the activated GCGR using β-galactosidase fragment complementation. CHO-K1-βArr-GCGR cells were stably transfected with or without RAMP2, as described previously. […] Fifty-five microliters of the PathHunter detection reagents was added to each well, and the microplate was incubated at room temperature for 60 minutes.

CHO-K1-GCGR cells [4] = assay: cAMP response to forskolin (control), CHO-K1-GCGR cells; type: cell-based, Chinese hamster; details: mean ± SEM; P = 0.20 vs RAMP2-expressing cells
Experimental: (§2) CHO-K1 cells overexpressing the human GCGR (with or without RAMP2), plated onto 48-well plates at 40,000 cells/well, were incubated in serum-free media for 1 hour. Peptides were prepared in serum-free DMEM containing 100 µM of IBMX (3-isobutyl-1-methylxanthine; Sigma-Aldrich, United Kingdom). The cells were incubated for 30 minutes with the test peptide, after which media were replaced with 110 µL lysis buffer (0.1M HCl with 0.5% Triton-X). The lysate was assayed by using a direct cyclic adenosine monophosphate ELISA kit (Enzo Life Sciences, United Kingdom), as described in the assay manual. The cyclic adenosine monophosphate (cAMP) response was corrected for well protein levels (Bradford reagent; Sigma-Aldrich) and expressed as a percentage of response to 10 µM forskolin.

[5] = tested on: CHO-K1-GCGR cells + RAMP2; assay: cAMP response to forskolin (control), RAMP2-expressing CHO-K1-GCGR cells; type: cell-based, Chinese hamster; details: mean ± SEM; P = 0.20 vs control cells
Experimental: as §2

## Nc1ncnc2c1ncn2[C@@H]1O[C@H](COP(=O)(O)OP(=O)(O)OP(=O)(O)O)[C@@H](O)[C@H]1O [ATP, adenosine triphosphate]
CHO-K1-GCGR cells [1]
  Ca^2+ response to ATP, control cells: 1.81 ± 0.08 relative fluorescence unit fold increase from baseline
[2]
  Ca^2+ response to ATP, RAMP2-expressing cells: 1.84 ± 0.10 relative fluorescence unit fold increase from baseline

## CC[C@H](C)[C@H](NC(=O)[C@H](Cc1ccccc1)NC(=O)[C@H](CCC(=O)O)NC(=O)[C@H](CCCCN)NC(=O)[C@H](C)NC(=O)[C@H](C)NC(=O)[C@H](CCC(N)=O)NC(=O)CNC(=O)[C@H](CCC(=O)O)NC(=O)[C@H](CC(C)C)NC(=O)[C@H](Cc1ccc(O)cc1)NC(=O)[C@H](CO)NC(=O)[C@H](CO)NC(=O)[C@@H](NC(=O)[C@H](CC(=O)O)NC(=O)[C@H](CO)NC(=O)[C@@H](NC(=O)[C@H](Cc1ccccc1)NC(=O)[C@@H](NC(=O)CNC(=O)[C@H](CCC(=O)O)NC(=O)[C@H](C)NC(=O)[C@@H](N)Cc1c[nH]cn1)[C@@H](C)O)[C@@H](C)O)C(C)C)C(=O)N[C@@H](C)C(=O)N[C@@H](Cc1c[nH]c2ccccc12)C(=O)N[C@@H](CC(C)C)C(=O)N[C@H](C(=O)N[C@@H](CCCCN)C(=O)NCC(=O)N[C@@H](CCCNC(=N)N)C(N)=O)C(C)C [GLP-1]
[3]
  β-arrestin recruitment in cells expressing both GCGR and RAMP2: did not occur; also recorded: completely abolished

## C=C[C@@]1(C)CC(=O)[C@]2(O)[C@@]3(C)[C@@H](O)CCC(C)(C)[C@@H]3[C@H](O)[C@H](OC(C)=O)[C@@]2(C)O1 [forskolin]
CHO-K1-GCGR cells [4]
  cAMP response to forskolin, control cells: 0.136 ± 0.01 relative absorbance units
[5]
  cAMP response to forskolin, RAMP2-expressing cells: 0.140 ± 0.01 relative absorbance units
